{"source": "patent US11542304B2", "about": "“Multimeric bicyclic peptide ligands” (BicycleTx Limited, priority 2018, dated 2023)", "key": {"[1]": {"target": "T1, CD137 (Homo sapiens, UniProt Q07011)", "T1 sequence (Q07011 24-255)": "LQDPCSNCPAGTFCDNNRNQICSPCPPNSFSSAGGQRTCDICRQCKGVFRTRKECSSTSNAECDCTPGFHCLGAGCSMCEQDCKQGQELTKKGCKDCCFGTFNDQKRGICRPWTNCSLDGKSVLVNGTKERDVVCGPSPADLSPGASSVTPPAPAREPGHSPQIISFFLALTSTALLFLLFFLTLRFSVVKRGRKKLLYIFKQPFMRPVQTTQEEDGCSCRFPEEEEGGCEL", "assay": "CD137 Promega reporter cell activity assay (NF-κB luciferase in Jurkat cells)", "description": "CD137 binding multimers were evaluated for CD137 using a Reporter cell activity assay that uses NF-κB luciferase luminescence as a read-out of CD137 activation in Jurkat cells. […] Samples were diluted at concentration expected to give the maximum fold induction and then titrated down in 1/3 dilution series or 1/10 dilution series in a sterile 96 well-plate. […] 50 μl cells were added per well to white cell culture plates.\nCells were co-incubated together with agonists for 6 h at 37° C., 5% CO2. After 6 h Bio-Glo™ was thawed and the assay developed at room-temperature. 75 ul Bio-Glo™ was added per well and incubated for 5-10 min. Luciferase signal was read on a Pherastar plate-reader using MARS program. Data was analysed by transforming the data to x=log (X), then plotting log (agonist) vs. response variable slope (4 parameters) to calculate EC50 values."}, "[2]": {"test_system": "MC38 syngeneic tumors", "assay": "In vivo efficacy in MC38 syngeneic tumors in C57BL/6J B-h4-1BB humanized mice", "settings": "20 or 30 mg/kg i.v. QAD × 6; compared to CD137 monoclonal antibody agonist; FIG. 7", "experimental": "The MC38 murine colon carcinoma cell line was purchased from Shunran Shanghai Biological Technology Co., Ltd. The cells will be maintained in vitro as monolayer culture in Dulbecco's Modified Eagle's medium (DMEM) supplemented with 10% heat inactivated fetal calf serum, 100 U/mL penicillin and 100 μg/mL streptomycin at 37° C. in an atmosphere of 5% CO2. The tumor cells will be routinely subcultured twice weekly by trypsin-EDTA treatment. Cells growing in an exponential growth phase will be harvested and counted for tumor inoculation. 6-8 week old female C57BL/6J B-h4-1BB humanized mice were subcutaneously injected (in the flank) with MC38 tumor cells (5×10^5) with 0.1 mL PBS for tumor development. Tumor-bearing animals were randomly enrolled into six study groups when the mean tumor size reached approximately 113 mm^3 (Study 1) or 107 mm^3 (Study 2). The test and positive control articles were administrated to the tumor-bearing mice according to predetermined regimens as shown below.\nTest articles were formulated in aqueous vehicle (25 mM Histidine, 10% sucrose pH=7) and administered intravenously or intraperitoneally. CD137 monoclonal antibody agonist was administered by intraperitoneal injection in 0.9% saline.\nTumor volume was measured three times a week in two dimensions using a caliper, and the volume was expressed in mm3 using the formula: V=0.5a×b2 where a and b were the long and short diameters of the tumor, respectively. Results are represented by mean and the standard deviation (Mean±SD).\nIn study 2, mice were sacrificed 21 days after treatment initiation and tumors were harvested for T-cell analysis by flow cytometry. Tumor were cut into small pieces and filtered through a 70 micrometer filter. Lymphocytes were isolated using Histopaque 1083 and resuspended in RPMI 1640 supplemented with 10% fetal bovine serum. Lymphocytes were stained with a cell viability dye (Zombie NIR, Biolegend, #423106) and a panel of antibodies including anti-mouse CD45 (Biolegend, #103138), anti-mouse CD3 (Biolegend, #100328), anti-mouse CD4 (Biolegend, #100438), anti-mouse CD8 (Biolegend, #100759). Stained cells were analysed by Attune N×T Flow Cytometer. T-cell results are expressed as % of CD3+ cells among CD45+ cells. CD8+ T-cell results are expressed as % of CD8+ cells among CD45+CD3+ cells. CD4+ T-cell results are expressed as % of CD4+ cells among CD45+CD3+ cells. Results are represented by mean and the standard deviation (Mean±SD) and the individual values.\nStatistical analysis: Data was analyzed using 2way ANOVA or ordinary One-way ANOVA with Dunnett's test for multiple comparisons, and P<0.05 was considered to be statistically significant. Both statistical analysis and biological observations are taken into consideration. ***p<0.001, **p<0.01, *p<0.05."}, "[3]": {"test_system": "Pan T-cells (isolated from human PBMCs)", "assay": "T-cell cytokine release assay", "format": "cell-based", "settings": "anti-CD3 stimulated T cells, 48 hours; FIG. 14", "experimental": "Healthy human buffy coat was purchased from the Sylvan N. Goldman Oklahoma Blood Institute and shipped fresh. Peripheral blood mononuclear cells (PBMCs) were isolated by Ficoll density gradient centrifugation. Red blood cells were lysed with ACK (Ammonium-Chloride-Potassium) lysis buffer. Pan T-cells were then isolated from total PBMCs using negative magnetic bead selection (Miltenyi MACS human Pan-T cell isolation kit). Pan T-cells were then plated on anti-CD3 coated 96-well plates (0.5 μg/mL) in culture media (RPMI1640 with 10% FBS) plus or minus compounds. Supernatant from cultures was collected after 24 and 48 hours. Cytokine [i.e., interleukin-2 (IL-2), interferon gamma (IFNγ)] release in supernatant was measured by HTRF assay (CisBio) according to the kit's instructions. HTRF assay plates were read on a Clariostar plate reader (BMG Labtech) at 665 nm and 620 nm. Data was analyzed and extrapolated to a standard curve according to the HTRF kit instruction in Prism and Excel. Cytokine release fold change was calculated by dividing the pg/mL of cytokine detected by background cytokine released (CD3 stimulation alone). Data was graphed in Prism as the mean of replicates with standard deviation error bars."}, "[4]": {"assay": "Pharmacokinetics of Bicycle multimers in CD-1 mice", "settings": "5 mg/kg IV, male CD-1 mice; FIGS. 5A and 5B", "description": "Male CD-1 mice were dosed with 5 mg/kg of each Bicycle multimer formulated in 25 mM Histidine HCl, 10% sucrose pH 7 via tail vein injection. Serial bleeding (about 80 μL blood/time point) was performed via submandibular or saphenous vein at each time point. All blood samples were immediately transferred into prechilled microcentrifuge tubes containing 2 μL K2-EDTA (0.5M) as anti-coagulant and placed on wet ice. Blood samples were immediately processed for plasma by centrifugation at approximately 4° C., 3000 g. The precipitant including internal standard was immediately added into the plasma, mixed well and centrifuged at 12,000 rpm, 4° C. for 10 minutes. The supernatant was transferred into pre-labeled polypropylene microcentrifuge tubes, and then quick-frozen over dry ice. The samples were stored at 70° C. or below as needed until analysis. 7.5 μL of the supernatant samples were directly injected for LC-MS/MS analysis using an Orbitrap Q Exactive in positive ion mode to determine the concentrations of Bicycle multimer. Plasma concentration versus time data were analyzed by non-compartmental approaches using the Phoenix WinNonlin 6.3 software program. C0, Cl, Vdss, T1/2, AUC(0-last), AUC(0-inf), MRT(0-last), MRT(0-inf) and graphs of plasma concentration versus time profile were reported."}, "[5]": {"target": "T1, CD137", "assay": "CD137 reporter cell activity washout assay", "format": "cell-based", "design": "host or cells: Jurkat cells", "settings": "10 nM, exposure 30, 60 or 120 minutes, total 6 hours; FIG. 13", "experimental": "Jurkat cells engineered to overexpress CD137 and express a luciferase gene under the NF-κB promoter were purchased from Promega. The reporter cells were incubated with 10 nM of CD137 agonists for the indicated times at 37° C. in RPMI1640 media with 1% FBS. After either 30, 60, or 120 minutes, cells were washed in an excess of culture media and resuspended in 75 μL of fresh media. A no washout condition was also included. All washout conditions were performed in duplicate. Cells then continued to incubate for a total of 6 hours (an additional 5.5, 5, or 4 hours respective to exposure times). After incubation, 75 μL of Bio-Glo reagent (Promega) was added to each well and allowed to equilibrate for 10 minutes at room temperature. Luminescence was read on the Clariostar plate reader (BMG LabTech). Fold induction was calculated by dividing the luminescence signal by background wells (reporter cells with no agonist added). The percent of the maximum fold induction was calculated by dividing the fold induction of the washout time by the fold induction of the no washout condition and multiplying by 100."}, "[6]": {"test_system": "melanoma patient tumour samples", "assay": "Ex vivo human tumour cell kill assay (3D spheroid culture)", "settings": "48 hours", "description": "Two frozen, dissociated melanoma patient tumour samples were purchased from Folio Conversant. Cells were thawed quickly at 37° C. and pipetted into 10 mL of Wash Medium [DMEM/F12+1× Penicillin/Streptomycin+50 μg/mL Gentamycin+100 μg/mL G418+100 μg/mL Hygromycin+1× Insulin-Transferrin-Selenium (ITS)+10 mM HEPES] with 1 mg/mL DNaseI added fresh. Cell counts were performed using a haemocytometer and a 1:2 dilution with 0.04% Trypan blue. Cells were spun down and resuspended in Growth Medium [EmbryoMax DMEM+10% heat-inactivated FBS+1× Penicillin/Streptomycin+50 μg/mL Gentamycin+1× GlutaMAX+1 mM Sodium pyruvate+1×ITS+0.4% BSA+4.5 g/L glucose+2.3 g/L sodium bicarbonate+10 mM HEPES+10 ng/mL basic fibroblast growth factor (bFGF)+20 ng/mL epidermal growth factor (EGF)] at 5×10^5 cells/mL. Cells were magnetized as described in the N3D Biosciences manufacturer's protocol. Briefly, NanoShuttle (NS) is added at 1 μL to 1×10^4 cells and mixed in by pipetting. […] Flow cytometry panels used in this experiment analysed the number of lymphocytes and tumour cells present on Days 0 and 2. Tumour cell killing was determined by the decrease in the number of CD45 negative cells in the treated wells versus the untreated control (FIG. 12)—significance was calculated using a 2-way ANOVA."}}, "data": [{"smiles": "CCCC[C@@H]1NC(=O)[C@H](Cc2ccc(O)cc2)NC(=O)[C@@H]2CCCN2C(=O)[C@H](CC(=O)O)NC(=O)[C@H](C)NC(=O)[C@H](Cc2ccccc2)NC(=O)[C@@H]2CSCCC(=O)N3CN(CN(C3)C(=O)CCSC[C@@H](C(=O)N[C@@H](C)C(N)=O)NC1=O)C(=O)CCSC[C@H](NC(=O)[C@H](C)NC(C)=O)C(=O)N[C@@H]([C@@H](C)CC)C(=O)N[C@@H](CCC(=O)O)C(=O)N[C@@H](CCCCNC(=O)CCc1cn(CCOCCOCCOCCOCCOCCOCCOCCOCCOCCOCCOCCOCCOCCOCCOCCOCCOCCOCCOCCOCCOCCOCCOCCNC(=O)CCOCC(COCCC(=O)NCCOCCOCCOCCOCCOCCOCCOCCOCCOCCOCCOCCOCCOCCOCCOCCOCCOCCOCCOCCOCCOCCOCCOCCn3cc(CCC(=O)NCCCC[C@@H]4NC(=O)[C@H](CCC(=O)O)NC(=O)[C@H]([C@@H](C)CC)NC(=O)[C@@H](NC(=O)[C@H](C)NC(C)=O)CSCCC(=O)N5CN6CN(C5)C(=O)CCSC[C@H](NC(=O)[C@H](Cc5ccc(O)cc5)NC(=O)[C@H](CCC(N)=O)NC(=O)CNC4=O)C(=O)N[C@@H](Cc4ccccc4)C(=O)N[C@@H](C)C(=O)N[C@@H](CC(=O)O)C(=O)N4CCC[C@H]4C(=O)N[C@@H](Cc4ccc(O)cc4)C(=O)N[C@@H](CCCC)C(=O)N[C@H](C(=O)N[C@@H](C)C(N)=O)CSCCC6=O)nn3)(COCCC(=O)NCCOCCOCCOCCOCCOCCOCCOCCOCCOCCOCCOCCOCCOCCOCCOCCOCCOCCOCCOCCOCCOCCOCCOCCn3cc(CCC(=O)NCCCC[C@@H]4NC(=O)[C@H](CCC(=O)O)NC(=O)[C@H]([C@@H](C)CC)NC(=O)[C@@H](NC(=O)[C@H](C)NC(C)=O)CSCCC(=O)N5CN6CN(C5)C(=O)CCSC[C@H](NC(=O)[C@H](Cc5ccc(O)cc5)NC(=O)[C@H](CCC(N)=O)NC(=O)CNC4=O)C(=O)N[C@@H](Cc4ccccc4)C(=O)N[C@@H](C)C(=O)N[C@@H](CC(=O)O)C(=O)N4CCC[C@H]4C(=O)N[C@@H](Cc4ccc(O)cc4)C(=O)N[C@@H](CCCC)C(=O)N[C@H](C(=O)N[C@@H](C)C(N)=O)CSCCC6=O)nn3)COCCC(=O)NCCOCCOCCOCCOCCOCCOCCOCCOCCOCCOCCOCCOCCOCCOCCOCCOCCOCCOCCOCCOCCOCCOCCOCCn3cc(CCC(=O)NCCCC[C@@H]4NC(=O)[C@H](CCC(=O)O)NC(=O)[C@H]([C@@H](C)CC)NC(=O)[C@@H](NC(=O)[C@H](C)NC(C)=O)CSCCC(=O)N5CN6CN(C5)C(=O)CCSC[C@H](NC(=O)[C@H](Cc5ccc(O)cc5)NC(=O)[C@H](CCC(N)=O)NC(=O)CNC4=O)C(=O)N[C@@H](Cc4ccccc4)C(=O)N[C@@H](C)C(=O)N[C@@H](CC(=O)O)C(=O)N4CCC[C@H]4C(=O)N[C@@H](Cc4ccc(O)cc4)C(=O)N[C@@H](CCCC)C(=O)N[C@H](C(=O)N[C@@H](C)C(N)=O)CSCCC6=O)nn3)nn1)C(=O)NCC(=O)N[C@@H](CCC(N)=O)C(=O)N[C@@H](Cc1ccc(O)cc1)C(=O)N2", "note": "[BCY7838]", "values": [{"measurement": "Average Fold EC50 Improvement relative to CD137L", "setting": "[1]; Average EC50 for CD137L = 14.2 nM", "value": 0.73}, {"measurement": "Average Relative Fold Induction relative to CD137L", "setting": "[1]; Average fold induction for CD137L = 4.0", "value": 2.19}, {"measurement": "anti-tumor activity (tumor volume), Study 1", "setting": "[2]", "value": "elicits a range of anti-tumor activities"}, {"measurement": "pro-inflammatory cytokine (IL-2, IFNγ) secretion by T-cells", "setting": "[3]", "value": "secrete pro-inflammatory cytokines"}, {"measurement": "systemic elimination (plasma concentration after IV dosing)", "setting": "[4]", "value": "retain the property of rapid systemic elimination"}, {"measurement": "cell activity after washout", "setting": "[5]", "value": "maintain cell activity after washout"}, {"measurement": "lymphocyte numbers (live CD45 positive cells)", "setting": "[6]; FIG. 12B", "value": "no significant difference between treatments on lymphocyte numbers"}, {"measurement": "tumour cell death (live CD45 negative cells)", "setting": "[6]; in one melanoma patient sample, but not the other, FIG. 12A", "value": "significant tumour cell death"}]}]}
